# Test results published in US6960611B2, “Sulfonyl-containing 2,3-diarylindole compounds, methods for making same, and methods of use thereof” (Institute of Materia Medica, priority 2002, dated 2005).
# Tests used:
# [1] = molecular target: T1, COX-2 (Mus musculus, UniProt Q05769); experiment: COX-2 assay: PGE2 release (RIA) from LPS-stimulated mouse peritoneal macrophages; assay type: cell-based, mice; settings: LPS 1 mg/L 9 h, PGE2 by RIA
# T1 construct: endogenous in cells; host or cells: thioglycollate-elicited peritoneal macrophages of male C57BL-6J mice, stimulated with LPS
# T1 sequence (Q05769 18-604): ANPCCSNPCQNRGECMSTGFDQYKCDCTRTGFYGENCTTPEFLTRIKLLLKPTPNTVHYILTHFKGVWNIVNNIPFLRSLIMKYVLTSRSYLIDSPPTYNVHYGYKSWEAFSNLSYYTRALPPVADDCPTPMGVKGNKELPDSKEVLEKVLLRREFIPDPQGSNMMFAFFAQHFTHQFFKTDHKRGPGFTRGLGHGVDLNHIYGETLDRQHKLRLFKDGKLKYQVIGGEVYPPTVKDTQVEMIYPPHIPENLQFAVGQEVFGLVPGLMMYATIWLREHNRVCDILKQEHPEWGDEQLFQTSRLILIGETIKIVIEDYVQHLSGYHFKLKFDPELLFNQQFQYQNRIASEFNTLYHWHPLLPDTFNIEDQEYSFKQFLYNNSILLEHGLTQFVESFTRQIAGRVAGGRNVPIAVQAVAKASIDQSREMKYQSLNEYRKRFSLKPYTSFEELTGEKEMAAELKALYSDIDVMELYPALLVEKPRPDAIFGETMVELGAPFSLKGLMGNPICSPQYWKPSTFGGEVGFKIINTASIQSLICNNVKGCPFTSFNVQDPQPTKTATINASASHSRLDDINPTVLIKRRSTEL
# Experimental: Cell culture: Adherent macrophages were harvested from the peritoneal cells of male mice (C57BL-6J, Level 2, from Experiment Animal Center, Academy of Military Medical Science) 3 d after the injection (ip) of brewer thioglycollate medium (5 mL/100 g body weight). […] Cell viability was examined by trypan blue dye exclusion. All incubation procedures were performed with 5% CO2 in humidified air at 37° C.
# COX-2 assay: Macrophages were incubated with test compound at different concentrations or solvent (Me2SO) for 1 h and were stimulated with LPS 1 mg/L for 9 h. The amount of PGE2 in supernatants was measured by RIA. The inhibitory ratio was calculated using the same Formula as in COX-1 assay section. Cs, Ct, Cc refer to PGE2 concentration in supernatants of LPS, test compound, and control groups, respectively.
# Statistical analysis: Data were expressed as the mean±SD of more than three independent experiments. Dose-inhibitory effect curves were fit through “uphill dose response curves, variable slope” using Prism, GraphPad (version 3.00): [formula]
# [2] = tested on: carrageenan-induced foot pad edema; experiment: Rat carrageenan-induced foot pad edema assay; assay type: in vivo; settings: 10 mg/kg oral
# Experimental: Male Sprgue-Dawley rats (190-220 g ) were fasted with free access to water at least 16 h prior experiments. The rats were dosed orally with a 1 ml suspension of test compound in vehicle (0.5% methyl cellulose and 0.025% Tween-20) or with vehicle alone. One hour later a subplantar injection of 0.1 ml of 1% solution of carageenan in 0.9% strile saline was administered to the right hind foot pad. Paw volume was measured with a displacement plethysmometer 2, 3, and 4 h after carrageenan injection.
IC50 [1] [nM],melting point [°C],SMILES,edema (paw volume increase) ([2]; 2 h after carrageenan) [%],edema (paw volume increase) ([2]; 3 h after carrageenan) [%],inhibitory percentage of edema ([2]; 3 h after carrageenan) [%],edema (paw volume increase) ([2]; 4 h after carrageenan) [%],inhibitory percentage of edema ([2]; 4 h after carrageenan) [%],inhibitory percentage of edema ([2]; 2 h after carrageenan) [%]
33.5,298 to 300,"NS(=O)(=O)c1ccc(-c2[nH]c3ccccc3c2-c2ccc(Cl)cc2)cc1 [Example 62, 2-(4-aminosulfonylphenyl)-3-(4-chlorophenyl)indole]",16.6 ± 6.5,41.3 ± 13.7,24.2,38.6 ± 14.9,25.6,
0.369,225 to 226,"CS(=O)(=O)c1ccc(-c2[nH]c3ccccc3c2-c2ccc(Br)cc2)cc1 [Example 63, 2-(4-methylsulfonylphenyl)-3-(4-bromophenyl)indole]",27.1 ± 10.1,55.3 ± 17,11.6,43.6 ± 9.5,16.1,
0.0896,197 to 198,"Cc1ccc(-c2c(-c3ccc(S(C)(=O)=O)cc3)[nH]c3ccccc23)cc1 [Example 65, 2-(4-methylsulfonylphenyl)-3-(4-methylphenyl)indole]",18.5 ± 8.1,35.8 ± 6.8,42.8,27.4 ± 7.1,47.2,
0.166,206 to 207,"Cc1ccc(-c2c(-c3ccc(S(C)(=O)=O)cc3)[nH]c3ccccc23)cc1C [Example 67, 2-(4-methylsulfonylphenyl)-3-(3,4-dimethylphenyl)indole]",25.6 ± 13.4,43.9 ± 11,29.8,29.5 ± 12,43.1,
0.022,218.5 to 220.5,"COc1ccc(-c2c(-c3ccc(S(C)(=O)=O)cc3)[nH]c3ccccc23)cc1 [Example 69, 2-(4-methylsulfonylphenyl)-3-(4-methoxyphenyl)indole]",21.6 ± 12.4,43.4 ± 12.1,30.6,37.8 ± 10.7,27.1,
5.15,228 to 230,"NS(=O)(=O)c1ccc(-c2[nH]c3ccccc3c2-c2ccc(F)cc2)cc1 [Example 72, 2-(4-aminosulfonylphenyl)-3-(4-Fluorophenyl)indole]",32.8 ± 13.2,36.4 ± 16.9,40.5,35.4 ± 11.3,41.2,
0.143,297 to 299,"NS(=O)(=O)c1ccc(-c2[nH]c3ccc(Cl)cc3c2-c2ccccc2)cc1 [Example 75, 2-(4-aminosulfonylphenyl)-3-phenyl-5-chloroindole]",35.6 ± 25.5,44.1 ± 31.4,54.8,34 ± 13.6,57.8,50.1
5,243 to 245,"CS(=O)(=O)c1ccc(-c2[nH]c3ccc(F)cc3c2-c2ccccc2)cc1 [Example 79, 2-(4-methylsulfonylphenyl)-3-phenyl-5-fluoroindole]",41.8 ± 7.2,47.7 ± 15.8,51.5,31.6 ± 13.3,60.8,41.4
2,302 to 304,"NS(=O)(=O)c1ccc(-c2[nH]c3ccc(F)cc3c2-c2ccccc2)cc1 [Example 80, 2-(4-aminosulfonylphenyl)-3-phenyl-5-fluoroindole]",36.7 ± 7.4,46.6 ± 14,52.2,40.8 ± 17.6,49.4,48.6
0.0171,242 to 244,"Cc1ccc2[nH]c(-c3ccc(S(N)(=O)=O)cc3)c(-c3ccccc3)c2c1 [Example 84, 2-(4-aminosulfonylphenyl)-3-phenyl-5-methylindole]",63.1 ± 18.1,65.6 ± 15.4,32.8,62.4 ± 15.7,22.6,40.5
0.27,273 to 275,"CS(=O)(=O)c1ccc(-c2c(-c3ccccc3)[nH]c3ccc(Cl)cc23)cc1 [Example 87, 2-phenyl-3-(4-methylsulfonylphenyl)-5-chloroindole]",45.4 ± 9.7,46.9 ± 13.6,23.4,43.4 ± 13.4,27.9,
354,269 to 271,"CS(=O)(=O)c1ccc(-c2c(-c3ccc(Cl)cc3)[nH]c3ccc(Cl)cc23)cc1 [Example 89, 2-(4-chlorophenyl)-3-(4-methylsulfonylphenyl)-5-chloroindole]",58.6 ± 15.8,66.5 ± 13.4,46.1,58.4 ± 13.8,29.9,
2.81,246 to 248,"COc1ccc(-c2[nH]c3ccc(Cl)cc3c2-c2ccc(S(C)(=O)=O)cc2)cc1 [Example 90, 2-(4-methoxyphenyl)-3-(4-methylsulfonylphenyl)-5-chloroindole]",44.2 ± 11.9,46.5 ± 5.7,52.4,40.8 ± 5.3,49.6,38.1
1.76,246 to 248,"CS(=O)(=O)c1ccc(-c2c(-c3ccccc3F)[nH]c3ccc(Cl)cc23)cc1 [Example 92, 2-(2-fluorophenyl)-3-(4-methylsulfonylphenyl)-5-chloroindole]",31.3 ± 17,44.6 ± 13.7,54.3,35.4 ± 18.8,56.1,56.2
6,238 to 240,"CC(=O)Oc1ccccc1-c1[nH]c2ccc(Cl)cc2c1-c1ccc(S(C)(=O)=O)cc1 [Example 93, 2-(2-acetyloxyphenyl)-3-(4-methylsulfonylphenyl)-5-chloroindole]",49.5 ± 8.2,54.4 ± 8.9,44.3,53.6 ± 11.4,33.5,30.7
7.16,248 to 250,"CC(=O)Oc1ccc(-c2[nH]c3ccc(Cl)cc3c2-c2ccc(S(C)(=O)=O)cc2)cc1 [Example 94, 2-(4-acetyloxyphenyl)-3-(4-methylsulfonylphenyl)-5-chloroindole]",58.8 ± 11.4,62.1 ± 7.1,36.3,56.4 ± 11.7,30.0,17.6
0.216,239 to 241,"CS(=O)(=O)c1ccc(-c2c(-c3ccccc3)[nH]c3ccccc23)cc1 [Example 100, 2-phenyl-3-(4-methylsulfonylphenyl)indole]",42.8 ± 15.1,54.4 ± 7.9,44.3,43.5 ± 8.9,46.1,40.1
2.55,223 to 225,"NS(=O)(=O)c1ccc(-c2c(-c3ccccc3)[nH]c3ccccc23)cc1 [Example 101, 2-phenyl-3-(4-aminosulfonylphenyl)indole]",36.6 ± 8.9,39.1 ± 15.4,36.1,33.6 ± 16.5,44.2,
